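Compound exposure: 48 hours, 5 concentrations, 96-well plates. The concentration for 50% growth inhibition is given as GI50. Definition used: TGI = concentration required for complete inhibition of growth.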
What was measured:
Experiment in all cases: NCI anticancer screen, dose series, 48 h
[1] = system: 786-0 renal
[2] = system: A498 renal
[3] = system: A549 NSCLC
[4] = system: ACHN renal
[5] = system: BT-549 breast
[6] = system: CAKI-1 renal
[7] = system: CCRF-CEM leukemia
[8] = system: COLO 205 colon
[9] = system: DU-145 prostate
[10] = system: EKVX NSCLC
[11] = system: HCC-2998 colon
[12] = system: HCT-116 colon
[13] = system: HCT-15 colon
[14] = system: HL-60(TB) leukemia
[15] = system: HOP-62 NSCLC
[16] = system: HOP-92 NSCLC
[17] = system: HS 578T breast
[18] = system: HT29 colon
[19] = system: IGROV1 ovarian
[20] = system: K-562 leukemia
[21] = system: KM12 colon
[22] = system: LOX IMVI melanoma
[23] = system: M14 melanoma
[24] = system: MALME-3M melanoma
[25] = system: MCF7 breast
[26] = system: MDA-MB-231 breast
[27] = system: MDA-MB-435
[28] = system: MDA-MB-468 breast
[29] = system: MOLT-4 leukemia
[30] = system: NCI-H226 lung
[31] = system: NCI-H23 lung
[32] = system: NCI-H460 lung
[33] = system: NCI-H522 lung
[34] = system: OVCAR-3 ovarian
[35] = system: OVCAR-4 ovarian
[36] = system: OVCAR-5 ovarian
[37] = system: OVCAR-8 ovarian
[38] = system: PC-3 prostate
[39] = system: RPMI-8226 leukemia
[40] = system: RXF 393 renal
[41] = system: SF-268 CNS
[42] = system: SF-295 CNS
[43] = system: SF-539 CNS
[44] = system: SK-MEL-2 melanoma
[45] = system: SK-MEL-28 melanoma
[46] = system: SK-MEL-5 melanoma
[47] = system: SK-OV-3 ovarian
[48] = system: SN12C renal
[49] = system: SNB-19 CNS
[50] = system: SNB-75 CNS
[51] = system: SR leukemia
[52] = system: SW-620 colon
[53] = system: T-47D breast
[54] = system: TK-10 renal
[55] = system: U251 CNS
[56] = system: UACC-257 melanoma
[57] = system: UACC-62 melanoma
[58] = system: UO-31 renal

COc1ccc2nc(Cl)c(-c3cc(-c4ccccc4)nc(=O)[nH]3)cc2c1 was tested, and the GI50 [1] was 12.4 µM, the TGI [1] was 40.2 µM and the GI50 [2] was 26.1 µM. The TGI [2] was 74.3 µM, the GI50 [3] was 20.7 µM and the TGI [3] was > 100 µM. It also gave a GI50 [4] of 14.7 µM, a TGI [4] of 32.3 µM and a GI50 [5] of 11.9 µM. It also gave a TGI [5] of 28.7 µM, a GI50 [6] of 12 µM and a TGI [6] of 28.9 µM. It also gave a GI50 [7] of 2.96 µM, a TGI [7] of 34.3 µM and a GI50 [8] of 17 µM. It also gave a TGI [8] of 41.5 µM, a GI50 [9] of 8.82 µM and a TGI [9] of 29.3 µM. For the same compound, the GI50 [10] was 24 µM, the TGI [10] was > 100 µM and the GI50 [11] was 16.5 µM. It also gave a TGI [11] of 31.8 µM, a GI50 [12] of 6.67 µM and a TGI [12] of 26.2 µM. The GI50 [13] was 6.66 µM, the TGI [13] was 33.6 µM and the GI50 [14] was 5.32 µM. It also gave a TGI [14] of 33 µM, a GI50 [15] of 14.8 µM and a TGI [15] of 34.4 µM. It also gave a GI50 [16] of 6.8 µM, a TGI [16] of 42.5 µM and a GI50 [17] of 24.8 µM. For the same compound, the TGI [17] was > 100 µM, the GI50 [18] was 18.3 µM and the TGI [18] was 40.8 µM. It also gave a GI50 [19] of 17.9 µM, a TGI [19] of 44.1 µM and a GI50 [20] of 2.98 µM. The TGI [20] was 59.2 µM, the GI50 [21] was 4.25 µM and the TGI [21] was 17.1 µM. The GI50 [22] was 3.86 µM, the TGI [22] was 33.5 µM and the GI50 [23] was 18.5 µM. It also gave a TGI [23] of 46.8 µM, a GI50 [24] of 15.9 µM and a TGI [24] of 31.9 µM. It also gave a GI50 [25] of 4.22 µM, a TGI [25] of 31.6 µM and a GI50 [26] of 16.7 µM. The TGI [26] was 43.7 µM, the GI50 [27] was 14.8 µM and the TGI [27] was 34.1 µM. The GI50 [28] was 11.4 µM, the TGI [28] was 33.8 µM and the GI50 [29] was 3.63 µM. It also gave a TGI [29] of 54.1 µM, a GI50 [30] of 12.7 µM and a TGI [30] of 41.7 µM. It also gave a GI50 [31] of 12 µM, a TGI [31] of 32.7 µM and a GI50 [32] of 5.69 µM. The TGI [32] was 20.6 µM, the GI50 [33] was 17 µM and the TGI [33] was 42.4 µM. The GI50 [34] was 7.42 µM, the TGI [34] was 23.8 µM and the GI50 [35] was 20.4 µM. It also gave a TGI [35] of 79.9 µM, a GI50 [36] of 18.2 µM and a TGI [36] of 38.1 µM. The GI50 [37] was 16.6 µM, the TGI [37] was 88.8 µM and the GI50 [38] was 14.2 µM. It also gave a TGI [38] of 56 µM, a GI50 [39] of 3.08 µM and a TGI [39] of 13.5 µM. The GI50 [40] was 13.3 µM, the TGI [40] was 33 µM and the GI50 [41] was 14.6 µM. It also gave a TGI [41] of 35 µM, a GI50 [42] of 21.3 µM and a TGI [42] of 67.2 µM. It also gave a GI50 [43] of 11.2 µM, a TGI [43] of 23.9 µM and a GI50 [44] of 18.5 µM. The TGI [44] was 40.9 µM, the GI50 [45] was 15.9 µM and the TGI [45] was 31 µM. For the same compound, the GI50 [46] was 16.8 µM, the TGI [46] was 31.5 µM and the GI50 [47] was 20.9 µM. For the same compound, the TGI [47] was 51.2 µM, the GI50 [48] was 19.4 µM and the TGI [48] was 59 µM. For the same compound, the GI50 [49] was 10.7 µM, the TGI [49] was 26 µM and the GI50 [50] was 13.1 µM. For the same compound, the TGI [50] was 37.1 µM, the GI50 [51] was 1.55 µM and the TGI [51] was 5.47 µM. It also gave a GI50 [52] of 6.44 µM, a TGI [52] of 35.1 µM and a GI50 [53] of 25.8 µM. The TGI [53] was > 100 µM, the GI50 [54] was 29 µM and the TGI [54] was > 100 µM. The GI50 [55] was 4.45 µM, the TGI [55] was 19.9 µM and the GI50 [56] was 18.1 µM. It also gave a TGI [56] of 37.6 µM, a GI50 [57] of 13.8 µM and a TGI [57] of 28.6 µM. It also gave a GI50 [58] of 10.5 µM and a TGI [58] of 22.4 µM.

Compound Clc1ccc(N2N=C(c3cccc(Nc4ccncc4)c3)CC2c2ccc3c(c2)OCO3)cc1 (centres undefined) has a GI50 [28] of 1.59 µM and a TGI [28] of 3.08 µM.

Cc1c(S(C)(=O)=O)c(-c2cc(F)cc(N3CCN(c4ccc(NS(=O)(=O)c5ccc(N[C@H](CCN6CCC(C(=O)OCCCP(=O)(O)O)CC6)CSc6ccccc6)c(S(=O)(=O)C(F)(F)F)c5)cc4)CC3)c2)c(-c2ccc(Cl)cc2)n1C(C)C was tested, and the GI50 [28] was > 100 µM and the TGI [28] was > 100 µM.

Work on COc1ccccc1/C=C/[N+](=O)[O-] yielded a GI50 [28] of 1.65 µM and a TGI [28] of 3.6 µM.

COc1ccc2c(c1)c(CC(=O)[Se]CC#N)c(C)n2C(=O)c1ccc(Cl)cc1 showed a GI50 [28] of 1.2 µM and a TGI [28] of 3.2 µM.

In the case of C[C@H](NC(=O)[C@@H]1CSSC[C@@H](NC(=O)c2nc3ccccc3cc2O)C(=O)NCC(=O)N1C)c1ccccc1, the GI50 [28] is reported as 5.89 µM and the TGI [28] is reported as 13.2 µM.

C=CCN(/C=C1/C(=O)O[C@H](COC)[C@@]2(C)C1=C(O)C(=O)C1=C2[C@H](OC(C)=O)C[C@]2(C)C(=O)CC[C@@H]12)CC=C gave a GI50 [28] of 0.101 µM and a TGI [28] of 0.779 µM.

FC(F)(F)c1cc(-c2nnc3n2N=C(N2CCCC2)CS3)cc(C(F)(F)F)c1 was tested, and the GI50 [28] was 32 µM and the TGI [28] was > 50 µM.

With Oc1ccc(C(c2ccc(O)cc2)c2ccc(Cl)cn2)cc1 the GI50 [28] was 0.116 µM and the TGI [28] was 0.577 µM.

In the case of C=C1SC(=Nc2c(C)cc(C)cc2C)N(C(=O)c2sc3ccccc3c2Cl)C12CCCCC2, the GI50 [28] is reported as > 100 µM and the TGI [28] is reported as > 100 µM.

For COc1ccc(Nc2ncc(Br)c(NCCCNC(=O)C3CCC3)n2)cc1, the GI50 [28] was 15.4 µM and the TGI [28] was 37 µM.

With O=Nc1c(-c2c(O)[nH]c3ccc([N+](=O)[O-])cc23)[nH]c2ccc(O)cc12 the GI50 [28] was 0.359 µM and the TGI [28] was 2.85 µM.

In the case of COc1ccc(N2Cc3cnc(Nc4ccccc4)nc3N([C@@H]3CC[C@@H](O)C3)C2=O)cc1, the GI50 [28] is reported as 6.65 µM and the TGI [28] is reported as > 25 µM.

Cc1ccc(/C(=N\N=C(N)N)c2ccccc2)cc1 showed a GI50 [28] of 0.426 µM and a TGI [28] of 5.83 µM.

In the case of CN1CCN(c2ccc(NC(=O)c3nc4ccc5[nH]ncc5c4c4c3CCCC4)cc2C(F)(F)F)CC1, the GI50 [28] is reported as 0.859 µM and the TGI [28] is reported as 1.98 µM.

Source: PubChem BioAssay (NCI)
